Where only a bound is given, the exact number is not on record here.

As a reminder, the melting point is the temperature, or range, at which the solid turns liquid. In turn, `Cc1c(NC(=O)CC(CSC(=O)COc2ccccc2)c2ccccc2)cccc1C(=O)O` (configuration not stated) had a melting point of 130 to 132 °C.
As for `Nc1c2c(nc3ccc(F)cc13)-c1ccccc1CC2`, the melting point was 158 to 159 °C.
As for `COc1ccccc1NC(=S)c1ccc(C)cc1`, the figure is 91 to 93 °C.
The value for `O=C(O[C@H]1Cc2c(O)cc(O)cc2O[C@@H]1c1ccc(O)c(O)c1)c1cc(O)c(O)c(O)c1` was 105 to 107 °C.
Compound `COc1cccc(CO)c1CO` had a melting point of 95 °C.
The value for `N#CC(Cc1ccccc1)=NNc1ccc([N+](=O)[O-])cc1` was 158 to 160 °C; that for `Cc1ccc([N+](=O)[O-])cc1C=CC#N` was 113 °C.
As for `C=C(C)Cc1cc(C)c2c(c1O)C(=O)CC2`, the figure is 62.5 to 64 °C; as for `O=C(Nc1cccnn1)N1CCN(c2cc(-c3ccccc3F)ncn2)CC1`, 207 to 208 °C; as for `Cc1ccccc1CCNC(=O)c1ccc(Br)cc1`, 102 to 103 °C.
On to `O=C(O)CCCCCCCCCCCCO`, for which the melting point lay within 77 to 78 °C.
On to `O=C(Nc1ccc(OCc2ccncc2)c2ccccc12)c1cc(F)cc(OC2CCOCC2)c1`, for which the melting point is 182 to 184 °C.
As for `COc1ccc(-n2cccc2-c2ccc(S(C)(=O)=O)cc2)cc1OC`, the figure is 124 to 126 °C.
In turn, `NC(=O)N(O)Cc1ccc(Oc2ccccc2)s1` gave a melting point of 114 to 116 °C.
As for `Nc1ccc(S(=O)(=O)Nn2cc(-c3ccccc3)c3ccccc32)cc1`, the figure is 176 to 177 °C.
The value for `CCOC(=O)c1cc(-c2nnn(C)n2)c(-c2ccc(F)cc2)s1` was 108 to 110 °C.
As for `O=C1C=C(NC(=O)C(=O)c2cn(Cc3cccc(Cl)c3)c3ccccc23)CO1`, the figure is 268 to 270 °C; as for `COC(=O)c1ccc(SC)c([N+](=O)[O-])c1`, 118 to 120 °C; as for `NS(=O)(=O)c1cc2cc(CBr)ccc2s1`, 171 to 173 °C.
`CCOC(=O)c1c(C)nc2c(cnn2CCOC)c1N` had a melting point of 82 to 85 °C.
Consider `COc1cccc(CN(CCC(=O)O)c2nc(NC(=O)Nc3ccccc3OC)nc(Oc3ccc4ccccc4c3)n2)c1`, for which the melting point was in the range of 189 to 194 °C.
`N#Cc1ccc(OCc2ccc3c(c2)OCO3)cc1OC(C(=O)O)c1ccccc1Cl` (racemic): the melting point lay within 144 to 145 °C.
As for `C[Si](C)(C)C#Cc1cn(C2CC(O)C(COC(c3ccccc3)(c3ccccc3)c3ccccc3)O2)c(=O)[nH]c1=O` (configuration not stated), the figure is 104 °C.
Take `CNC(=O)c1ccc(Nc2nccc(-c3cccnc3)n2)cc1`: the melting point was 254 to 257 °C.
`CCCCCCCc1ccc(C(=O)CCCCC(=O)O)cc1[N+](=O)[O-]` had a melting point of 53 to 56 °C.
The compound `CC(=O)N(C(C)=O)c1c(C#N)cnn1-c1ncc(C(F)(F)F)cc1Cl` yielded a melting point of 130 to 132 °C.
With `CC(CNc1cc(Oc2ccc3c(C(=O)Nc4cc(C(C)(C)C)nn4-c4ccc(F)cc4)cccc3c2)ncn1)N(C)C` (configuration not stated), the melting point was 190 to 193 °C.
In the case of `COc1ccc(-c2nc(C(=O)N3CCN(C(C)=O)CC3)sc2-c2ccc(OC)cc2)cc1`, the melting point was 176 to 178 °C.
The value for `O=C(O)Cn1c(-c2ccc(Cl)c(Cl)c2)nc2cccnc21` was 248 to 249 °C; that for `O=C(Nc1ccc(Oc2ccc(C(O)CCC(=O)N3CCOCC3)cc2)c(F)c1)c1ccc(Cl)c(Cl)c1` (configuration not stated) was 108 to 111 °C.
Compound `Nc1ccc(OCC2CCN(c3ccncc3)CC2)cc1` came in with a melting point of 207 to 209 °C.
`CCCCCCCCCCCCCCCCCCC(=O)Nc1ccc(O)cc1` yielded a melting point of 138 °C.
As for `COC(=O)c1cc(Oc2ccc(Cl)c(C)c2)ccc1[N+](=O)[O-]`, the figure is 85 to 87 °C; as for `CC(C)(C)OC(=O)Nc1ccc2ccc(C#N)cc2c1Br`, 139 to 141 °C.
The value for `COc1cc(C=O)cc2c1OC1(CCCC1)C2` was 54 °C; that for `O=C(O)CCCc1ccc(-c2ccccc2Cl)cc1` was 60 to 61 °C; that for `O=C1N(C(c2ccccc2)c2ccccc2)c2c(F)cccc2C1(O)c1cc2c(cc1O)OCC2` (configuration not stated) was 121 to 122 °C.
In the case of `COc1ccc(Oc2ccc(C(=O)C(=O)c3ccc(Oc4ccc(OC)cc4)cc3)cc2)cc1`, the melting point was 121 to 122 °C.
In turn, `O=C(O)CSCn1cnnn1` yielded a melting point of 98 to 101 °C.
The value for `CCOC(=O)c1cccc(-c2ccc3c(c2)N(C(=O)Cc2cccc(C(F)(F)F)c2)CC3)c1` was 222 to 223 °C; that for `CC(=O)Nc1ccc(O[C@H]2CCN(C)C[C@H]2c2ccccc2)cc1` (relative stereo) was 174 to 176 °C; that for `O=C(CCC1CC1)N1C(=O)OC[C@@H]1Cc1ccccc1` was 42 to 43 °C.
Compound `O=C(NNc1ccccc1)N1CCN2C(=O)OC(c3ccccc3)(c3ccccc3)C2C1` (configuration not stated) showed a melting point of 227 to 228 °C.
For `COc1ccccc1OC(=O)CNC(=O)C(C)SC(=O)c1cccs1` (configuration not stated), the melting point lay within 90.5 to 92 °C.
Regarding `COC(=O)CCC(=O)c1cc(OC)ccc1OCC(O)CNC(C)(C)C` (configuration not stated), the melting point fell in the range of 70 to 72 °C.
The value for `Cn1c(C(F)(F)F)cc(=O)n(-c2ccc3snc(C4OCCO4)c3c2)c1=O` was 213 to 216 °C.
As for `COc1c(N2CC[C@@H](C3(NCCO)CC3)C2)c(F)cc2c(=O)c(C(=O)O)cn([C@@H]3C[C@@H]3F)c12`, the figure is 153 to 155 °C; as for `CCOC(=O)c1cn2c3c(cccc3c1=O)CC2(C)C`, 117 to 119 °C.
In the case of `Cc1nc2cc(/C=C/C(=O)NO)ccc2c(=O)n1CCc1ccccc1`, the melting point lay in the range of 227 to 229 °C.
The value for `COC(=O)CCC(=O)Nc1ccc(C(=O)NNC(=O)OC(C)(C)C)cc1` was 111 to 113 °C; that for `CN1CCC(=C2c3ccc(Cl)cc3CCn3ccnc32)CC1` was 187 °C.
`O=C1Nc2cnc(Nc3ccc(N4CCOCC4)cc3)nc2S/C1=C/c1ccc([N+](=O)[O-])cc1` registered a melting point of 302 to 304 °C.
Take `CC1CCCCN1CCC(=O)Nc1ccc2c(=O)c3ccc(NC(=O)CCN4CCCCC4C)cc3[nH]c2c1` (configuration not stated): the melting point is over 320 °C.
As for `CCOC(=O)C1CCNC(=O)C1=O` (configuration not stated), the figure is 148 to 151 °C; as for `CC1=N/C(=C\c2c[nH]c3ncccc23)C(=O)N1CCN1CCOCC1`, 235 to 240 °C; as for `COCNC(=O)c1c(-c2ccc(Cl)cc2)nsc1-c1ccccc1`, 119 to 120 °C.
`COc1cccc2c(Nc3ccccc3C)nc(Nc3ccccc3C)nc12`: the melting point was in the range of 185 to 187 °C.
As for `COc1cc(Nc2ncc(-c3ccccc3C(=O)O)o2)ccc1-c1cnco1`, the melting point is 271 to 274 °C.
`O=C(CCc1ccccc1)NC(C(=O)Nc1n[nH]c(=S)s1)c1ccccc1` (configuration not stated) registered a melting point of 196 to 198 °C.
The value for `CCCCCCCCCCCCCCOC(=O)CNC(=O)OCc1ccccc1` was 57 to 58 °C; that for `Nc1ncnc2c1ncn2C1OC(C(O)C(=O)OCc2ccccc2)C(O)C1O` (configuration not stated) was 144 to 145 °C.
As for `Clc1ccc(/C=C/c2ccc(Cl)cc2)cc1`, the figure is 176 °C; as for `CS(=O)(=O)c1ccc(-c2cnn(-c3ccc(F)c(F)c3)c(=O)c2C#Cc2ccccc2)cc1`, 211 to 213 °C.
`CCCCN=C(CS(C)=O)c1cc2ccccc2cc1O` (configuration not stated) gave a melting point of 162 to 164 °C.
The value for `COc1ccc(-c2ccc3c(c2)C(C)(C)CCC3(C)C)cc1-c1ccc(C(=O)O)cc1` was 148 to 152 °C.
For the compound `O=C(O)c1cc(Cl)ccc1-n1cccc1`, the melting point was 178 °C.
The value for `CN1CCN(c2cc(Sc3ccc(Cl)cc3)nc(-c3ccccc3)n2)CC1` was 152 to 154 °C; that for `NS(=O)(=O)c1cccc(-c2cccc(-c3nc(-c4ccc(C(F)(F)F)cc4)cc(C(F)(F)F)n3)c2)c1` was 267 °C.
On to `O=c1oc2cccc(O)c2c(O)c1-c1ccccc1`, for which the melting point lay within 256 to 265 °C.
In turn, `O=c1[nH]ccc2c1ccc1[nH]cc(CCN(Cc3ccccc3)Cc3ccccc3)c12` registered a melting point of 250 to 253 °C.
The value for `COc1cc2c(cc1O)CCN(Cc1cccc(OC)c1OC)C2` was 101 to 102 °C.
`COC(=O)C(C)=Cc1cc(N=C=S)ccc1Cl` had a melting point of 60 to 61 °C.
The compound `O=[N+]([O-])c1cc(CCl)ccc1OCc1ccccc1` returned a melting point of 60 to 61 °C.
The value for `Nc1nc2ccccc2c2c1ncn2CCOCC#Cc1ccccc1C(F)(F)F` was 154 to 155 °C.
The value for `COc1ccc(Cl)cc1NC(=O)[C@H]1[C@H](c2ccc(S(N)(=O)=O)cc2)C12CCCC2` (relative stereo) was 210 to 212 °C; that for `COc1ccc(CN2C(=O)[C@@H](NC(=O)Cc3ccccc3)[C@H]2CN=[N+]=[N-])c(OC)c1` (relative stereo) was 110 to 111 °C.
As for `CCCCCCCCCCCCC1=C(O)C(=O)c2c(Cl)cccc2C1=O`, the figure is 102 to 104 °C; as for `O=C1NC(=O)C(Cc2ccc(OCCn3nc(-c4ccccc4)c4ccccc4c3=O)cc2)S1` (configuration not stated), 198 °C; as for `O=Cc1c(NC(Cc2ccccc2)C(=O)O)ncnc1-c1ccc(OCc2ccccc2)cc1` (configuration not stated), over 300 °C.
`C=CCOc1cccc2oc(C(=O)OCC)cc(=O)c12`: the melting point was in the range of 122 to 123 °C.
Consider `NN=C1CCCCC1n1nc(-c2c(-c3ccccc3)nn3ccccc23)ccc1=O` (configuration not stated), for which the melting point was 161 to 162 °C.
The value for `CCOC(=O)N1C(=NC#N)NC(C)=C(C(=O)OC)C1c1cccc(Cl)c1Cl` (configuration not stated) was 176 to 178 °C.
The compound `Nc1ccccc1C(=O)OCCN1CCN(c2cccc(Cl)c2)CC1` came in with a melting point of 76 °C.
Regarding `Fc1ccc(-c2nc(CCCSc3ccccc3)[nH]c2-c2ccncc2)cc1`, the melting point was in the range of 98 to 99 °C.
The value for `CN1CCC(c2ccc(F)cc2)(C(C)(C)O)CC1` was 165 to 166 °C.
The value for `Clc1cccc(-n2ccnc2)n1` was 71 to 73 °C; that for `CC(C)(C)c1ccc(S(=O)(=O)N2c3ccccc3C[C@H]2C(=O)NCc2cccc(OCCC(=O)O)c2)cc1` was 122 °C.

The values above are taken from a melting point compilation (Tetko et al.; mined from patent text by program, amines drawn as free bases though some values may be those of a salt).
